Assay results published in ChEMBL document CHEMBL1142203, “Antiviral activities of novel 5-phosphono-pent-2-en-1-yl nucleosides and their alkoxyalkyl phosphonoesters” (Antimicrob Agents Chemother, 2007).
pEC50: −log10 of the molar value.

Assays:
[1] = test system: Human betaherpesvirus 5; experiment: Antiviral activity against HCMV AD169 in HFF cells by plaque reduction assay; assay type: functional, organism-based; details: Human betaherpesvirus 5, AD169, HFF
[2] = test system: Human alphaherpesvirus 1; experiment: Antiviral activity against HSV1 in MRC5 cells by DNA reduction assay; assay type: functional, organism-based; details: Human alphaherpesvirus 1, MRC5
[3] = test system: Vaccinia virus; experiment: Antiviral activity against Vaccinia virus Copenhagen in HFF cells by plaque reduction assay; assay type: functional, organism-based; details: Orthopoxvirus vaccinia
[4] = test system: Cowpox virus; experiment: Antiviral activity against Cowpox virus Brighton in HFF cells by plaque reduction assay; assay type: functional, organism-based
[5] = test system: Human alphaherpesvirus 3; experiment: Antiviral activity against VZV Ellen in HFF cell by CPE assay; assay type: functional, organism-based; details: Human alphaherpesvirus 3, Ellen
[6] = test system: Human gammaherpesvirus 4; experiment: Antiviral activity against EBV in Daudi cells by ELISA; assay type: functional, organism-based; details: human gammaherpesvirus 4, Daudi
[7] = Cytotoxicity against HFF cells by neutral red uptake assay; assay type: cell-based; details: human
[8] = test system: Hepatitis B virus; experiment: Antiviral activity against HBV in HepG2 2.2.15 cells after 24 hrs by DNA reduction assay; assay type: functional, organism-based; details: HepG2, 24 h
[9] = Cytotoxicity against HepG2 2.2.15 cells assessed as inhibition of uptake of neutral red dye after 24 hrs; assay type: cell-based; details: human
[10] = Selectivity index, ratio of CC50 for HepG2 2.2.15 cells to EC50 for HBV; assay type: functional
[11] = test system: Hepatitis B virus; experiment: Antiviral activity against wild type HBV in Huh7 cells after 5 days; assay type: functional, organism-based; details: Huh-7, 120 h
[12] = test system: Hepatitis B virus; experiment: Antiviral activity against HBV with lamivudine-resistant polymerase L180M mutant in Huh7 cells after 5 days; assay type: functional, organism-based; details: Huh-7, 120 h
[13] = test system: Hepatitis B virus; experiment: Antiviral activity against HBV with lamivudine-resistant polymerase M204V mutant in Huh7 cells after 5 days; assay type: functional, organism-based; details: Huh-7, 120 h
[14] = test system: Hepatitis B virus; experiment: Antiviral activity against HBV with lamivudine-resistant polymerase M204I mutant in Huh7 cells after 5 days; assay type: functional, organism-based; details: Huh-7, 120 h
[15] = test system: Hepatitis B virus; experiment: Antiviral activity against HBV with lamivudine-resistant polymerase L180M/M204V double mutant in Huh7 cells after 5 days; assay type: functional, organism-based; details: Huh-7, 120 h
[16] = test system: Hepatitis B virus; experiment: Antiviral activity against HBV with […]-resistant polymerase N236T mutant in Huh7 cells after 5 days; assay type: functional, organism-based; details: Huh-7, 120 h
[17] = Cytotoxicity against Huh7 cells; assay type: cell-based, Huh-7; details: human
[18] = Cytotoxicity against plated MRC5 cells by neutral red uptake assay; assay type: cell-based; details: human
[19] = Cytotoxicity against Daudi cells; assay type: cell-based; details: human
[20] = test system: Human immunodeficiency virus 1; experiment: Antiviral activity against HIV1 LAI in MT2 cells assessed as inhibition of p24 antigen production; assay type: functional, organism-based; details: Human immunodeficiency virus 1, LAI
[21] = Cytotoxicity against MT2 cells after 72 hrs; assay type: cell-based; details: human

Row | SMILES | pEC50 [1] | pEC50 [2] | pEC50 [3] | pEC50 [4] | pEC50 [5] | pEC50 [6] | CC50 [7] | pEC50 [8] | CC50 at 24 h [9] | Ratio CC50/EC50 [10] | pEC50 [11] | pEC50 [12] | pEC50 [13] | pEC50 [14] | pEC50 [15] | pEC50 [16] | CC50 [17] | CC50 [18] | further results
1 | CCCCCCCCCCCCCCCCOCCCOP(=O)(O)CC/C=C\Cn1cnc2c(=O)nc(N)[nH]c21 | 5.74 | 5.24 | 5.12 | 4.96 | 4.91 | 4.32 | > 100 µM | 5.62 | > 1000 µM | >417 | 5.06 | < 4.00 | 4.80 | 4.89 | < 4.00 | 5.20 | 929 µM |  | 
2 | Nc1ncnc2c1ncn2C/C=C\CCP(=O)(O)O | < 4.00 | < 4.52 | < 4.00 | < 4.00 | < 3.52 | < 5.40 | > 100 µM | < 4.52 | 639 µM |  |  |  |  |  |  |  |  | > 100 µM | 
3 | Cc1cn(C/C=C\CCP(=O)(O)O)c(=O)[nH]c1=O | < 4.00 | < 4.52 | < 4.00 | < 4.00 | < 3.52 |  | > 100 µM | < 4.52 | 620 µM |  |  |  |  |  |  |  |  | > 100 µM | 
4 | CCCCCCCCCCCCCCCCOCCCOP(=O)(O)CC/C=C\Cn1cnc2c(N)ncnc21 | 4.80 | 4.74 | < 4.52 | < 4.70 | < 4.70 | 7.00 | 43 µM | 5.82 | 116 µM | 77 | 5.04 | 4.82 | 5.05 | 5.11 | 5.09 | 5.00 | 110 µM |  | CC50 [19]: > 100 µM
5 | Nc1ccn(C/C=C\CCP(=O)(O)O)c(=O)n1 | < 4.00 | < 4.52 | < 4.00 | < 4.00 | < 4.22 |  | > 100 µM | < 4.52 | 600 µM |  |  |  |  |  |  |  |  | > 100 µM | 
6 | CCCCCCCCCCCCCCCCOCCCOP(=O)(O)CC/C=C\Cn1ccc(=O)[nH]c1=O | < 4.70 | < 4.52 | < 4.00 | < 4.00 |  |  | > 100 µM | < 4.52 | 155 µM |  |  |  |  |  |  |  |  |  | 
7 | Nc1nc(=O)c2ncn(C/C=C\CCP(=O)(O)O)c2[nH]1 | 4.16 | < 4.52 | < 4.00 | < 4.00 | 5.14 |  | > 100 µM | < 4.52 | 610 µM |  |  |  |  |  |  |  |  | > 100 µM | 
8 | CCCCCCCCCCCCCCCCOCCCOP(=O)(O)CC/C=C\Cn1ccc(N)nc1=O | 5.54 | 5.33 | < 4.70 | < 4.70 | 5.43 |  | 56 µM | 5.41 | 621 µM | 159 | 5.47 | < 4.00 | < 4.00 | < 4.00 | < 4.00 | 5.40 | 523 µM |  | pEC50 [20]: 5.60; CC50 at 72 h [21]: 3.3 µM
9 | CCCCCCCCCCCCCCCCOCCCOP(=O)(O)CC/C=C\Cn1cc(C)c(=O)[nH]c1=O | 6.18 | 6.05 | < 4.70 | < 4.70 | 5.52 |  | > 100 µM | 5.70 | 122 µM | 61 | 5.52 | < 4.00 | < 4.00 | < 4.00 | < 4.00 | 5.42 | 120 µM |  | pEC50 [20]: 6.00; CC50 at 72 h [21]: 1.3 µM
10 | O=c1nc(O)ccn1C/C=C\CCP(=O)(O)O | < 4.00 | < 4.52 | < 4.00 | < 4.00 | < 3.52 |  | > 100 µM | < 4.52 | 712 µM |  |  |  |  |  |  |  |  | > 100 µM | 
